The values that follow are results of earlier work, collected in patent publication US20050272712A1, “Compositions and methods for treatment of premenstrual dysphoric disorder” (Wyeth, priority 2004, published 2005).

For the data set the following is noted: daily dose of either 20 mg or 60 mg; Steiner et al. 1995.

Consider `CNCCC(Oc1ccc(C(F)(F)F)cc1)c1ccccc1` (stereo not shown) [fluoxetine], for which the “reduction of symptoms versus placebo” value was “superior to placebo in reducing symptoms”.
